{
  "source": "ChEMBL document CHEMBL3585242",
  "about": "“Pyridine Nucleosides Neopetrosides A and B from a Marine Neopetrosia sp. Sponge. Synthesis of Neopetroside A and Its β-Riboside Analogue” (J Nat Prod, 2015)",
  "key": {"C2C12 [1]": {"system": "C2C12", "experiment": "Cytotoxicity against mouse C2C12 cells assessed as cell viability up to 100 uM after 24 hrs by CellTox green assay", "format": "cell-based", "details": "c2c12, 24 h"}, "C2C12 [2]": {"system": "C2C12", "experiment": "Upregulation of mitochondrial function in mouse C2C12 cells assessed as increase in mitochondrial oxygen consumption rate at 10 uM after 1 hr relative to control", "format": "functional, cell-based"}, "C2C12 [3]": {"system": "C2C12", "experiment": "Upregulation of mitochondrial function in mouse C2C12 cells assessed as increase in mitochondrial ATP level at 10 uM after 1 hr by ToxGlo assay relative to control", "format": "functional, cell-based"}},
  "note": "Active and inactive are the calls of the source. The calls are words filed in the database; no cut-off is given here.",
  "data": [
    {"compound": "O=C([O-])c1ccc[n+]([C@H]2O[C@H](COC(=O)c3ccc(O)cc3)[C@@H](O)[C@H]2O)c1", "values": [
      {"measurement": "Activity", "setting": "C2C12 [1]", "value": "Non-toxic"},
      {"measurement": "Activity", "setting": "C2C12 [2]", "value": "Active"},
      {"measurement": "Activity", "setting": "C2C12 [3]", "value": "Active"}
    ]}
  ]
}
